Data: patent US20090281137A1, “INDOL-2-ONE DERIVATIVES FOR THE TREATMENT OF CENTRAL NERVOUS DISORDERS, GASTROINTESTINAL DISORDERS AND CARDIOVASCULAR DISORDERS” (priority 2004, published 2009)
Where a name gives a salt, the structure may show the parent alone.

Biological target: T1, 5-HT1A receptors (Rattus norvegicus, UniProt P19327)
T1 construct: from tissue; host or cells: rat frontal cortex membrane preparation
T1 sequence (P19327 1-422): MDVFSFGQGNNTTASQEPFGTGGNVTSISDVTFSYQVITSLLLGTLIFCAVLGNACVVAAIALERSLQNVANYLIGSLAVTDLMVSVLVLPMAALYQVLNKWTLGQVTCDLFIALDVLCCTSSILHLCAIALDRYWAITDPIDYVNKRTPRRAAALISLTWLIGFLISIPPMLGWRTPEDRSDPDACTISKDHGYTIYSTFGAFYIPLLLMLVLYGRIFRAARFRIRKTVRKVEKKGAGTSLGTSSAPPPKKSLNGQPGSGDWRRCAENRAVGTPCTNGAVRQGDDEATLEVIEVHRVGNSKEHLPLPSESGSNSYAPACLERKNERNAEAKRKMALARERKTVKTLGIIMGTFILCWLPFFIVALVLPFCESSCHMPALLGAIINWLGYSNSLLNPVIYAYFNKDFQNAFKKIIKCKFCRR
Assay: 5-HT1A receptor binding experiment
Conditions: isolated frontal cortex membrane preparation of rats, tritiated 8-OH-DPAT ligand, 25° C., 30 minutes
Method: Binding of the compounds of the general Formula (I) to 5-HT1A receptors was investigated according to the method of Peroutka (S. J. Peroutka: J. Neurochem. 47, p. 529 (1986)).
Receptor bindings were determined from isolated frontal cortex membrane preparation of rats by using tritiated 8-hydroxy-N,N-dipropyl-2-amino-tetraline (8-OH-DPAT) ligand. For the determination of non-specific binding 10 μM serotonin creatinine sulfate was used. The following conditions were applied: incubation […] volume: 250 μl, incubation temperature: 25° C., incubation time: 30 minutes. The reaction was terminated by the addition of 9 ml of 50 mM ice-cold TRIS-HCl buffer (pH=7.7) and quick vacuum filtration using Whatman GFIB fibreglass filtering paper. Radioactivity of the filter boards was measured with the aid of a liquid scintillation spectrometer.
IC50 is the concentration whereby the difference between whole binding and non-specific binding in the presence of 10 μM serotonin creatinine sulfate is 50%. The compounds with an IC50 value smaller than […] were considered effective in this test.

Row | IC50 [nM] | Compound
1 | > 100 | CCC1(CCCCCN2CCc3sccc3C2)C(=O)Nc2ccccc21 (stereo not drawn) [Example 36, 3-[5-(6,7-Dihydro-4H-thieno[3,2-c]pyridin-5-yl)-pentyl]-3-ethyl-1,3-dihydro-2H-indol-2-one monooxalate]
2 | > 100 | CCC1(CCCCCN2CCc3sc(Cl)cc3C2)C(=O)Nc2ccccc21 (stereo not drawn) [Example 37, 3-[5-(2-Chloro-6,7-dihydro-4H-thieno[3,2-c]-pyridin-5-yl)-pentyl]-3-ethyl-1,3-dihydro-2H-indol-2-one monohydrochloride]
3 | > 100 | CCC1(CCCCN2CCc3sccc3C2)C(=O)Nc2ccccc21 (stereo not drawn) [Example 29, 3-[4-(6,7-Dihydro-4H-thieno[3,2-c]pyridin-5-yl)-butyl]-3-ethyl-1,3-dihydro-2H-indol-2-one monohydrochloride]
4 | > 100 | CCC1(CCCCN2CCc3sccc3C2)C(=O)Nc2ccc(Cl)cc21 (stereo not drawn) [Example 26, 5-Chloro-3-[4-(6,7-dihydro-4H-thieno[3,2-c]-pyridin-5-yl)-butyl]-3-ethyl-1,3-dihydro-2H-indol-2-one monohydrochloride]

Tested on: Male Sprague-Dawley rats
Assay: Elevated plus-maze in rats
Format: in vivo
Conditions: p.o., 60 min after treatment, 5 min test, increase in time spent in or number of entries into the open arms
Source text: The anxiolytic effect of the compounds according to the invention was investigated on rats according to the so-called elevated plus-maze test (S. Pelow, P. Chopin, S. E. File, J. Briley: Neurosci. Methods 14, p. 149 (1985)).
A wooden cross elevated to 50 cm above the floor, 15 cm wide with 100 cm long arms was used for the experiments. The sides and ends of two opposite arms of the cross were equipped with 40 cm high walls, however, the arms were open to the 15 cm×15 cm central area (closed arms). The two other opposite arms were not encircled by walls (open arms).
Male Sprague-Dawley rats weighing 200-220 g were used for the experiments. The animals were placed in the central area of the equipment 60 min after treatment and the following four parameters have been observed for the 5 min test time: […]
time spent in the open arms (sec), time spent in the closed arms (sec), number of entries into the open arms, number of entries into the closed arms.
The effect was expressed as percent increase in either the time spent in the open arms or number of entries into the open arms. MEDs (minimal effective doses) were determined for each compound.

Row | Compound | MED (minimal effective dose)
5 | CCC1(CCCCCN2CCc3sccc3C2)C(=O)Nc2ccccc21 (stereo not drawn) [Example 36, 3-[5-(6,7-Dihydro-4H-thieno[3,2-c]pyridin-5-yl)-pentyl]-3-ethyl-1,3-dihydro-2H-indol-2-one monooxalate] | ≦1.0 mg/kg p.o.
6 | CCC1(CCCCN2CC=C(c3ccc(F)cc3)CC2)C(=O)Nc2ccccc21 (stereo not drawn) [Example 39, 3-Ethyl-3-{4-[4-(4-fluorophenyl)-1,2,3,6-tetrahydropyridin-1-yl]-butyl}-1,3-dihydro-2H-indol-2-one monohydrochloride] | 0.01 mg/kg p.o.

Tested on: not given
Assay: not given
Conditions: not given

Row | melting point [°C] | Compound
7 | 138 to 140 | CCC1(CCCCN2CCc3sccc3C2)C(=O)Nc2ccc(C)cc21 (stereo not drawn) [Example 30, 3-[4-(6,7-Dihydro-4H-thieno[3,2-c]pyridin-5-yl)-butyl]-3-ethyl-5-methyl-1,3-dihydro-2H-indol-2-one]
8 | 114 to 116 | CC(C)CC1(CCCCN2CCc3sccc3C2)C(=O)Nc2ccccc21 (stereo not drawn) [Example 28, 3-[4-(6,7-Dihydro-4H-thieno[3,2-c]pyridin-5-yl)-butyl]-3-isobutyl-1,3-dihydro-2H-indol-2-one]
9 | 117 to 119 | CCC1(CCCCN2CCc3sc(Cl)cc3C2)C(=O)Nc2ccccc21 (stereo not drawn) [Example 34, 3-[4-(2-Chloro-6,7-dihydro-4H-thieno[3,2-c]-pyridin-5-yl)-butyl]-3-ethyl-1,3-dihydro-2H-indol-2-one]
10 | 146 to 148 | CCC1(CCCCN2CC=C(c3ccc(Cl)cc3)CC2)C(=O)Nc2ccc(F)cc21 (stereo not drawn)
11 | 96 to 98 | CCC1(CCCCCN2CCc3sc(Cl)cc3C2)C(=O)Nc2ccccc21 (stereo not drawn) (as salt: hydrochloride) [Example 37, 3-[5-(2-Chloro-6,7-dihydro-4H-thieno[3,2-c]-pyridin-5-yl)-pentyl]-3-ethyl-1,3-dihydro-2H-indol-2-one monohydrochloride]
12 | 149 to 151 | CCC1(CCCCN2CCc3sccc3C2)C(=O)Nc2ccc(Br)cc21 (stereo not drawn) [Example 27, 5-Bromo-3-[4-(6,7-dihydro-4H-thieno[3,2-c]pyridin-5-yl)-butyl]-3-ethyl-1,3-dihydro-2H-indol-2-one]
13 | 193 to 195 | CCC1(CCCCCN2CCc3sccc3C2)C(=O)Nc2ccccc21 (stereo not drawn) (as salt: oxalate) [Example 36, 3-[5-(6,7-Dihydro-4H-thieno[3,2-c]pyridin-5-yl)-pentyl]-3-ethyl-1,3-dihydro-2H-indol-2-one monooxalate]
14 | 194 to 196 | CCC1(CCCCN2CCc3sccc3C2)C(=O)Nc2c(Cl)cc(F)cc21 (stereo not drawn) [Example 33, 7-Chloro-3-[4-(6,7-dihydro-4H-thieno[3,2-c]-pyridin-5-yl)-butyl]-3-ethyl-5-fluoro-1,3-dihydro-2H-indol-2-one]
15 | 142 to 145 | CCC1(CCCCN2CC=C(c3ccc(Cl)cc3)CC2)C(=O)Nc2ccccc21 (stereo not drawn)
16 | 143 to 144 | CCC1(CCCCN2CCc3sccc3C2)C(=O)Nc2ccccc21 (stereo not drawn) (as salt: hydrochloride) [Example 29, 3-[4-(6,7-Dihydro-4H-thieno[3,2-c]pyridin-5-yl)-butyl]-3-ethyl-1,3-dihydro-2H-indol-2-one monohydrochloride]
17 | 130 to 132 | CCC1(CCCN2CCc3sccc3C2)C(=O)Nc2ccccc21 (stereo not drawn) [Example 23, 3-[3-(6,7-Dihydro-4H-thieno[3,2-c]pyridin-5-yl)-propyl]-3-ethyl-1,3-dihydro-2H-indol-2-one]
18 | 155 to 157 | CCC1(CCCCN2CCc3sccc3C2)C(=O)Nc2cc(F)c(Cl)cc21 (stereo not drawn) [Example 35, 5-Chloro-3-[4-(6,7-dihydro-4H-thieno[3,2-c]-pyridin-5-yl)-butyl]-3-ethyl-6-fluoro-1,3-dihydro-2H-indol-2-one]
19 | 66 to 69 | CCC1(CCCN2CCc3sccc3C2)C(=O)Nc2ccc(Cl)cc21 (stereo not drawn) [Example 24, 5-Chloro-3-[3-(6,7-dihydro-4H-thieno[3,2-c]-pyridin-5-yl)-propyl]-3-ethyl-1,3-dihydro-2H-indol-2-one]
20 | 112 to 114 | CCC1(CCCCN2CC=C(c3cccc(Cl)c3)CC2)C(=O)Nc2ccc(F)cc21 (stereo not drawn)

Row | Compound | melting point [°C]
21 | CCC1(CCCCN2CC=C(c3ccc(F)cc3)CC2)C(=O)Nc2ccccc21 (stereo not drawn) (as salt: hydrochloride) [Example 39, 3-Ethyl-3-{4-[4-(4-fluorophenyl)-1,2,3,6-tetrahydropyridin-1-yl]-butyl}-1,3-dihydro-2H-indol-2-one monohydrochloride] | 108 to 111
